Experimental data: ChEMBL document CHEMBL1201862, “PubChem BioAssay data set” (2004)
Values joined by “and” are separate entries in the source; they are usually repeats but may differ in a detail not shown here. Identical values can stand only once. Active and inactive are the calls of the source.

Tests used:
Cytochrome P450 3A4 = Cytochrome P450 3A4 (Homo sapiens, UniProt P08684);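 further: CYP3A4 tested as one member of a cytochrome P450 panel screen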
[1] = target: FAD-linked sulfhydryl oxidase ALR (Homo sapiens, UniProt P55789); experiment: inhibitors of human ALR sulfhydryl oxidase, dose response, biochemical, H2O2 detection, luminescence, cherry-pick (AID 493248)
Large T antigen = Large T antigen (Simian virus 40, UniProt P03070); format: functional, Betapolyomavirus macacae;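 further: Confirmatory-stage PubChem screen for compounds that inhibit SV40 T antigen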
[2] = microbe, parasite or virus in culture; format: functional; settings: Mycobacterium tuberculosis
[3] = target: T1, Replicative DNA helicase DnaB (Mycobacterium tuberculosis, UniProt P9WMR3); experiment: DnaB intein splicing inhibitors, dose response, biochemical, cell-free fluorescence (AID 449749); format: functional
T1 sequence (P9WMR3 whole entry): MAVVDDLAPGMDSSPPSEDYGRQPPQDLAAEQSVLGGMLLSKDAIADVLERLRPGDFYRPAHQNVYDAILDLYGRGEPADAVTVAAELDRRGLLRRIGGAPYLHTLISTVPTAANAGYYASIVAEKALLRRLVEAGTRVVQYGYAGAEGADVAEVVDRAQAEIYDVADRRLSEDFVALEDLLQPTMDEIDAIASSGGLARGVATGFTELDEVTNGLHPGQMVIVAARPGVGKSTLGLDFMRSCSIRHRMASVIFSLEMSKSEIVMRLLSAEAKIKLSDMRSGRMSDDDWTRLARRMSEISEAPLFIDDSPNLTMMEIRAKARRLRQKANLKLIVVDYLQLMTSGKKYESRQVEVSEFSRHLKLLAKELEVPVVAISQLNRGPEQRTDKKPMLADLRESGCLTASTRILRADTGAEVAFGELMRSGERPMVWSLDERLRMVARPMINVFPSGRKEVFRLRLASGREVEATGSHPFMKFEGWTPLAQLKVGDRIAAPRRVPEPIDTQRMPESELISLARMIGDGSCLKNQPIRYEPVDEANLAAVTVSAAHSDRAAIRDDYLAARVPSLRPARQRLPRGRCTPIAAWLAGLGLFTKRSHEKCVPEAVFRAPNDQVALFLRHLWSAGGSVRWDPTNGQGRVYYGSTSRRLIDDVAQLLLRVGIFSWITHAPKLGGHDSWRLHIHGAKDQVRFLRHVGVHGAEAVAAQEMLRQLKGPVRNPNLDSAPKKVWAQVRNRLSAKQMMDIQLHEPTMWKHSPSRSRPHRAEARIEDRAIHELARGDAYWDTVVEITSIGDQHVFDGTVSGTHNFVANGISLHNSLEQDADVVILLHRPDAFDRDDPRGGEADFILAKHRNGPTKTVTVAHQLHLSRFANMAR

Protein RecA = target: T2, Protein RecA (Mycobacterium tuberculosis, UniProt P9WHJ3); experiment: Fluorescence Cell-Free Homogeneous Dose Retest to Identify Inhibitors of RecA-Intein Splicing Activity. [Related pubchem assays (depositor defined):AID2097, AID2223, AID489010, AID492950]; format: functional
T2 sequence (P9WHJ3 whole entry): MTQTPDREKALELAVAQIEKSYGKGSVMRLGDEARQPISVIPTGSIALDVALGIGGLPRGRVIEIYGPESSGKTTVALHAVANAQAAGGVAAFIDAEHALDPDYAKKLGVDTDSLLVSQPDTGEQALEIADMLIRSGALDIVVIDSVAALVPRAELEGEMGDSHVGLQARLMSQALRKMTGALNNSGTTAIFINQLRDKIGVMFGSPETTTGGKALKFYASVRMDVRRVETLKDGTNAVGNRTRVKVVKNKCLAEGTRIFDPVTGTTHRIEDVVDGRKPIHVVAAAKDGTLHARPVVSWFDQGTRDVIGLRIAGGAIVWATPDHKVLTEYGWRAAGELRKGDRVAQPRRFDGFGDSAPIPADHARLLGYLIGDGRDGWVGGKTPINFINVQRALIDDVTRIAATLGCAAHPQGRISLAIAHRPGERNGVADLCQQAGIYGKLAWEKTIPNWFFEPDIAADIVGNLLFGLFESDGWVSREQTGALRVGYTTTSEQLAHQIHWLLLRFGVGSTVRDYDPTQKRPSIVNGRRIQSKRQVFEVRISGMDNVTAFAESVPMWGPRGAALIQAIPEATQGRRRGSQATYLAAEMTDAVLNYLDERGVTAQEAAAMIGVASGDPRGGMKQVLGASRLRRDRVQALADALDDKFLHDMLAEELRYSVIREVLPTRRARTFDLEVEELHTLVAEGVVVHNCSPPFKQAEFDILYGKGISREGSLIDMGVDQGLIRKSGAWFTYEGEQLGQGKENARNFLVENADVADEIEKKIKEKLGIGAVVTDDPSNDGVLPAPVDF

Cytochrome P450 2C9 [4] = target: T3, Cytochrome P450 2C9 (Homo sapiens, UniProt P11712)
[5] = P. falciparum Dd2 growth inhibitors, dose response, SYBR Green, cherry-picked samples (AID 1159567); format: functional, cell-based
Cytochrome P450 2C19 = Cytochrome P450 2C19 (Homo sapiens, UniProt P33261); experiment: Cytochrome panel assay with activity outcomes. Panel member name: p450-cyp2c19 Compounds with AC50 equal or less than 10 uM are considered active; format: functional
Cytochrome P450 2D6 = Cytochrome P450 2D6 (Homo sapiens, UniProt P10635);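 further: CYP2D6 member of a cytochrome P450 panel assay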
Cytochrome P450 1A2 = target: T4, Cytochrome P450 1A2 (Homo sapiens, UniProt P05177);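 further: PubChem cytochrome P450 panel assay, CYP1A2 panel member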
T4 sequence (P05177 whole entry): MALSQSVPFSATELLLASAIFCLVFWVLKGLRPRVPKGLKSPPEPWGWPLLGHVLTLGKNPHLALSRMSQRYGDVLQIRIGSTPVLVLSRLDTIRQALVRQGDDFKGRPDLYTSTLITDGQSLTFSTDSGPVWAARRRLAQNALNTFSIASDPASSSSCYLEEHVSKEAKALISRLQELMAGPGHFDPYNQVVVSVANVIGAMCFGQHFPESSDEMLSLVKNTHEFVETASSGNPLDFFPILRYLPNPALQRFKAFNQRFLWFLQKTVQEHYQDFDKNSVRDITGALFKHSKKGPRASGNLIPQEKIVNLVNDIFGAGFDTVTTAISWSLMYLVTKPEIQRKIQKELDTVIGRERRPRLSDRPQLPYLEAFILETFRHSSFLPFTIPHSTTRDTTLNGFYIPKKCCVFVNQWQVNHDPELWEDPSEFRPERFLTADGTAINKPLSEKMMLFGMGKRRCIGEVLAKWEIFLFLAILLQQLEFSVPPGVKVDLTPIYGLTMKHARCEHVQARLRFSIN

Cytochrome P450 2C9 [6] = target: T3, Cytochrome P450 2C9; remark: listed apart in the source
[7] = target: T5, Heat shock factor protein 1 (Mus musculus, UniProt P38532); experiment: HSF1 potentiators in luciferase reporter cells, confirmation, cell-based, NIH3T3, luminescence, dose retest (AID 435004); format: functional;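 further: stress induced by proteasome inhibitor MG132 added 30 min after compound; luciferase reporter driven by HSF1 response element in NIH3T3 cells; actives raise luminescence as potentiators of the MG132 stress response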
T5 sequence (P38532 whole entry): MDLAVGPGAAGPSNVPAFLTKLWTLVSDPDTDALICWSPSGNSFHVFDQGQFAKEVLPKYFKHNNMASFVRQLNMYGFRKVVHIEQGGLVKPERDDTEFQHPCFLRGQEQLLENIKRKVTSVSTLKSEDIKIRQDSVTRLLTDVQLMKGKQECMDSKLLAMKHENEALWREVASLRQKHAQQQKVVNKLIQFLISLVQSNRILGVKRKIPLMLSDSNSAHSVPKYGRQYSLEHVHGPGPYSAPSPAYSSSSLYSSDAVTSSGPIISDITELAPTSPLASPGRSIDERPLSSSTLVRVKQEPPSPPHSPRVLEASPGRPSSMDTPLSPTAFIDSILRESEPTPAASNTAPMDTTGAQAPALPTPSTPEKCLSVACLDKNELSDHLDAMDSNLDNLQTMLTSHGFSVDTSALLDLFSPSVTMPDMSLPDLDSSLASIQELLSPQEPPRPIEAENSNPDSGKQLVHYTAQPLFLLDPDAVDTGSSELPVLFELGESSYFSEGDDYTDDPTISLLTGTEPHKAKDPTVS

Sequence of Cytochrome P450 2D6 (P10635 whole entry): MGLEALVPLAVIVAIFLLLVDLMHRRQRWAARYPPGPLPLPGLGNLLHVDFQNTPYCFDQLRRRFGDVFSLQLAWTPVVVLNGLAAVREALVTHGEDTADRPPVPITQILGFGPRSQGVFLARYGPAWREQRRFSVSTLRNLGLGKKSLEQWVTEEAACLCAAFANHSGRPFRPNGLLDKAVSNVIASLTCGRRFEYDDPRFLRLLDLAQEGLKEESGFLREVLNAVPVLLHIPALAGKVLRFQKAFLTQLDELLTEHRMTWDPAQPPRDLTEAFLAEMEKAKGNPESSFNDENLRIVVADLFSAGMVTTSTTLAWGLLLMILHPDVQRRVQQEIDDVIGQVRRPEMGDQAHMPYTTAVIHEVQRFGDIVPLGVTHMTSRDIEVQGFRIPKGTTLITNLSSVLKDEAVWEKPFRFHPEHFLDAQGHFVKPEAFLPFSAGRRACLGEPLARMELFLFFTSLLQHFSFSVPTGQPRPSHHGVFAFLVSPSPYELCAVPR
T3 sequence (P11712 whole entry): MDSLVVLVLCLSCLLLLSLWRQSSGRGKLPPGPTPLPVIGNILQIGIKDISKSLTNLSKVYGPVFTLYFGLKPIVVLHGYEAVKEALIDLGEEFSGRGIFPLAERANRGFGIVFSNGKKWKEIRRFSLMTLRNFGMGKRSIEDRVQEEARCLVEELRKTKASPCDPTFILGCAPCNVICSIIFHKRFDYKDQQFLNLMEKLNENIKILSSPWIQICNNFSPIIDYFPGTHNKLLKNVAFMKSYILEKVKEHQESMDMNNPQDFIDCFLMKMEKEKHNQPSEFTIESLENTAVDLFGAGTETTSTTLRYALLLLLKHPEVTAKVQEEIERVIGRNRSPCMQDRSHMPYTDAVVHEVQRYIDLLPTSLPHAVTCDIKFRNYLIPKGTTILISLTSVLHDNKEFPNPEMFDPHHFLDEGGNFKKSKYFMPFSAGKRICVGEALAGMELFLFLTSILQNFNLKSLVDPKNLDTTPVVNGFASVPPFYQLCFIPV
Sequence of FAD-linked sulfhydryl oxidase ALR (P55789 whole entry): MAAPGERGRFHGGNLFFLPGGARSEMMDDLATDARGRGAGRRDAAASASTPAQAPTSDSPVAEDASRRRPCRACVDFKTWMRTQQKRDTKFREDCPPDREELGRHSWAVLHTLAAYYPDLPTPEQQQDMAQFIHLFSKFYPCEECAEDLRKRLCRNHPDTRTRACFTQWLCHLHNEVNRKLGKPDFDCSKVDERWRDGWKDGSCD
Sequence of Cytochrome P450 3A4 (P08684 whole entry): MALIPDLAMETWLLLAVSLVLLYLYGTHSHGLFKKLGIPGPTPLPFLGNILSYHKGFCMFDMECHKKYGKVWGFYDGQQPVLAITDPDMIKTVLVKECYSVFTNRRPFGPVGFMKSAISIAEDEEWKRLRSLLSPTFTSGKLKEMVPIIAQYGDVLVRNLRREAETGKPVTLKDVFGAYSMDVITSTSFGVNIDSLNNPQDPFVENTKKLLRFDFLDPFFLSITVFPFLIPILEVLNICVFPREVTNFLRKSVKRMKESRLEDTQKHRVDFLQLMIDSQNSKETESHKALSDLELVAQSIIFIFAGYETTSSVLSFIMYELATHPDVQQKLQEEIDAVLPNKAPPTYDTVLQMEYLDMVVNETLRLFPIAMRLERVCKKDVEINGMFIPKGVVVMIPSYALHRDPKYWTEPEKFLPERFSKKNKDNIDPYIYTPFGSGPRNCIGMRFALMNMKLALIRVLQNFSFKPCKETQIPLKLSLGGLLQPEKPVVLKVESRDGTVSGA
Sequence of Cytochrome P450 2C19 (P33261 whole entry): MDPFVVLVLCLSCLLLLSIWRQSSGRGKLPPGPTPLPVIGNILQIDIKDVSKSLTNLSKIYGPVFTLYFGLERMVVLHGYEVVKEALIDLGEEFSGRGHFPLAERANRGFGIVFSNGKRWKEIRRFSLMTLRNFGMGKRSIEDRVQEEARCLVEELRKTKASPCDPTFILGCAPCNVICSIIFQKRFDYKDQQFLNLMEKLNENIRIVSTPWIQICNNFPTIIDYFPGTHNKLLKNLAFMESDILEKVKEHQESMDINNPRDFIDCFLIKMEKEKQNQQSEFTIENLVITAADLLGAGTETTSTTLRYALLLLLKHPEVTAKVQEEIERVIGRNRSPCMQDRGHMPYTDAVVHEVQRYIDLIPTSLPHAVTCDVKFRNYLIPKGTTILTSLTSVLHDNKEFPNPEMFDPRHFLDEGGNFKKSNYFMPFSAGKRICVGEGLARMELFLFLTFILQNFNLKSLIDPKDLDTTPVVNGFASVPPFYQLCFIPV
Sequence of Large T antigen (P03070 whole entry): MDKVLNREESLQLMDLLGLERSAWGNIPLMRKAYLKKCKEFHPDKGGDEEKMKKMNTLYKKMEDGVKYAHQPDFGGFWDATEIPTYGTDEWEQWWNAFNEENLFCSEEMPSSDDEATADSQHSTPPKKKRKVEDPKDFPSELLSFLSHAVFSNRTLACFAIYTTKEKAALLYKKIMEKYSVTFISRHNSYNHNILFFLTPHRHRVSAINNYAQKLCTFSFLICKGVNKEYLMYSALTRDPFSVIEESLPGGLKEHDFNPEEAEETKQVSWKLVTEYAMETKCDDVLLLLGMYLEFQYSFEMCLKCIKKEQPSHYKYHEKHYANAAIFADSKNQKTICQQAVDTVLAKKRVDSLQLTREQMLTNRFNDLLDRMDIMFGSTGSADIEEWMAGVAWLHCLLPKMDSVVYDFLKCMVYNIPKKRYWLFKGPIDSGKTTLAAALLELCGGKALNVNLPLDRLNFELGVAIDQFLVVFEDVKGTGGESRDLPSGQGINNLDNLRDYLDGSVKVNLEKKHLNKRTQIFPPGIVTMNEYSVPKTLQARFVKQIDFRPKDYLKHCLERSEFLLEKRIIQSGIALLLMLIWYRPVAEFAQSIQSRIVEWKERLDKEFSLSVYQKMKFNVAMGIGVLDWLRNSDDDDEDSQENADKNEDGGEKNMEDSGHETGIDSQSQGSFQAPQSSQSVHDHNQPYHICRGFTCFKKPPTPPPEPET

CC(=O)Nc1ccc(N2CCCCC2)cc1
AC50 (Cytochrome P450 3A4): 0.251 µM (inconclusive) | AC50 [1]: 2.96 µM (active) | IC50 (Large T antigen): 13.2 µM (active)

O=C(Nc1ccc(Cl)cc1)N(Cc1nc(O)c2ccccc2n1)Cc1cccs1
CC50 [2]: > 40 µM (active)

COc1ccc(N(C(=O)COc2cccc(C)c2)S(=O)(=O)c2ccc(C)cc2)cc1
AC50 [3]: 4.29 µM (active) | EC50 (Protein RecA): 4.53 µM (active)

O=c1c(-c2cc(F)cc(F)c2)nc2cncnc2n1C1CC1
AC50 (Cytochrome P450 3A4): 7.94 µM (inconclusive) | AC50 (Cytochrome P450 2C9 [4]): inconclusive

COc1ccccc1NC(=O)N(C)C[C@H]1OCc2ccccc2-c2c(n(C)c3ccccc23)C(=O)N([C@@H](C)CO)C[C@@H]1C
AC50 [5]: 4.25 µM (active)

CCc1c(C)sc2nc3c(C(=O)N4CCOCC4)cc(C(=O)c4cc(F)ccc4O)cn3c(=O)c12
CC50 [2]: > 40 µM (active)

CCCOc1ccc(C(=O)OCCN(CC)CC)cc1N [PROPARACAINE]
AC50 (Cytochrome P450 2C19): inconclusive | AC50 (Cytochrome P450 2D6): 6.31 µM (inconclusive)

Cc1nc([N+](=O)[O-])c(Sc2nc3ccccc3[nH]2)n1Cc1ccccc1
AC50 [3]: 15.3 µM (active) | EC50 (Protein RecA): 12.3 µM (active)

Cc1nn(Cc2c(F)c(F)c(F)c(F)c2F)c(C)c1NC(=O)c1cccc(COc2ccccc2Cl)c1
AC50 (Cytochrome P450 1A2): 17.8 µM (inconclusive) | AC50 (Cytochrome P450 2D6): 0.794 µM (inconclusive)

Cc1cc(=O)oc2cc(Oc3ccc([N+](=O)[O-])cc3C(F)(F)F)ccc12
CC50 [2]: > 40 µM (active)

Cc1ccc(S(=O)(=O)NC(CC(C)C)C(=O)Oc2ccc3c4c(c(=O)oc3c2)CCC4)cc1 (stereo unspecified)
AC50 (Cytochrome P450 2D6): 15.8 µM (inconclusive)

Cc1ccccc1-c1nc(C[S+]([O-])CC(=O)NCCCN(C)c2ccccc2)c(C)o1 (stereo unspecified)
AC50 (Cytochrome P450 2D6): 25.1 µM (inconclusive) | AC50 (Cytochrome P450 2C9 [4]): inconclusive

Cn1c(=O)c(C(=O)NNC(=O)c2cccc(Cl)c2)c(O)c2ccccc21
CC50 [2]: > 40 µM (active)

CN(C)Cc1ccccc1-c1cncnc1NC1CC1
AC50 (Cytochrome P450 2D6): 25.1 µM (inconclusive)

COCc1n[nH]c2c1C(c1ccsc1)C(C#N)=C(N)O2 (stereo unspecified)
AC50 [3]: 21.1 µM (active) | EC50 (Protein RecA): 4.35 µM (active)

O=C(CCN1C(=O)c2cccc3cccc(c23)C1=O)N1CCN(Cc2ccc3c(c2)OCO3)CC1
AC50 (Cytochrome P450 2C9 [4]): inconclusive

CCCC(=O)Nc1ccc(N2CCN(CC)CC2)c(Cl)c1
AC50 (Cytochrome P450 2D6): 20 µM (inconclusive) | AC50 (Cytochrome P450 2C9 [6]): 0.178 µM (inconclusive)

COCC(=O)Nc1ccc2c(c1)OC[C@H](C)N(Cc1ccncc1)C[C@H](C)[C@@H](OC)CN(C)C2=O
AC50 [5]: 25.2 µM (active)

CC1CCCC(C)N1C(=O)c1ccccc1Nc1ccc(SC(F)F)cc1 (stereo unspecified)
AC50 (Cytochrome P450 1A2): 17.8 µM (inconclusive) | AC50 (Cytochrome P450 2D6): 0.631 µM (inconclusive)

Cc1cnc(CNc2ncnc3ccc(-c4cccc(NS(C)(=O)=O)c4)cc23)cn1
AC50 (Cytochrome P450 2D6): 25.1 µM (inconclusive) | AC50 (Cytochrome P450 2C9 [4]): inconclusive

CCOC(=O)N1CCN(C(=O)c2ccc(OC)c(OC)c2)CC1
AC50 (Cytochrome P450 2C19; read-out: AC50): 25.1 µM (inconclusive) | AC50 (Cytochrome P450 2C9 [4]): inconclusive

Cc1nn(-c2ccccc2)c(O)c1/C=N/N1CCOCC1
AC50 [3]: 39.3 µM (active) | EC50 (Protein RecA): 31.7 µM (active)

COc1ccc2c3c(n(C)c2c1)[C@H](CO)N(C(=O)C1CC1)CC31CN(C(=O)C2CCOCC2)C1
AC50 [5]: 22.6 µM (active)

Cc1cccc(S(=O)(=O)C(C#N)c2nc3ccccc3nc2N2CCCC2)c1 (stereo unspecified)
EC50 (Protein RecA): > 380 µM (inactive)

COC(=O)c1ccc(/N=C2\C(Cl)=C(O)OC2OC(=O)c2ccccc2)cc1 (stereo unspecified)
AC50 [3]: 10.9 µM (active) | EC50 (Protein RecA): 17.8 µM (active)

CCC(=O)Nc1ccc2c(c1)OC[C@@H](C)N(Cc1ccccc1)C[C@@H](C)[C@H](OC)CN(C)C2=O
AC50 [5]: 5.57 µM (active)

CC(=O)Nc1ccc(-n2cc(-c3ccccc3)[nH]c2=S)cc1
AC50 [1]: 6.42 µM (active)

N[C@@H](Cc1ncccn1)C(=O)O
AC50 (Cytochrome P450 2C9 [4]): inconclusive

O=C1OCCC1Sc1nnc(-c2ccc(O)cc2)o1 (stereo unspecified)
AC50 (Cytochrome P450 3A4): 7.08 µM (inconclusive) | AC50 (Cytochrome P450 2C9 [4]): inconclusive

COc1ccc(NC(=O)c2ccc(-c3ccc(-c4noc(C)n4)cc3C)cc2)cc1N1CCN(C)CC1 [GR-127935]
AC50 (Cytochrome P450 2D6): 20 µM (inconclusive) and 39.8 µM (inconclusive)

COc1ccc(C)cc1NC(=O)c1cc2cc3ccc(C)cc3nc2o1
AC50 (Cytochrome P450 1A2): 1.26 µM (inconclusive) | AC50 (Cytochrome P450 2C9 [4]): inconclusive

COc1ccc2nc(Nc3ccccc3OC)sc2c1
AC50 [1]: 1.71 µM (active)

OC(c1ccccc1)(c1ccccc1)C1CCNCC1 [AZACYCLONOL]
AC50 (Cytochrome P450 2D6): 15.8 µM (inconclusive)

CCOC(=O)c1c(NC(C)=O)sc2c1CCC(/C=N/CCCN(CC)CC)=C2Sc1ccccc1
EC50 [7]: 16.6 µM (active) | AC50 [3]: 0.239 µM (active) | EC50 (Protein RecA): 0.229 µM (active)

O=C(Nc1ccc(N2CCOCC2)cc1)Nc1ccc2nsnc2c1
AC50 [3]: 170 µM (active) | EC50 (Protein RecA): > 380 µM (inactive)

CN(C)c1nc(Oc2ccc(/C=N/O)cc2)nc(N(C)C)n1
AC50 [1]: 0.156 µM (active)
